Literature values in patent US10934405B2, “Synthetic polymer film whose surface has microbicidal activity, plastic product which includes synthetic polymer film, sterilization method with use of surface of synthetic polymer film, photocurable resin composition, and manufacturing method of synthetic polymer film” (Sharp Kabushiki Kaisha, priority 2018, dated 2021).

Conditions: for Water Solubility: YES/NO, TABLE 1A and 1B

Row | Compound | Water Solubility | Water Solubility (symbol) (TABLE 6A and 6B)
1 | C=COCCOCCOC(=O)C=C [VEEA, 2-(2-vinyloxyethoxy)ethyl acrylate] | YES | 
2 | Nc1nc2ncc(CNc3ccc(C(=O)N[C@@H](CCC(=O)O)C(=O)O)cc3)nc2c(=O)[nH]1 [folic acid] |  | ◯
3 | polyethylene glycol (200) diacrylate [Example M282] | YES | 
4 | polyethylene glycol (400) diacrylate [Example M280] | YES | 
